Source: article PMC3026848 (Bioorganic & medicinal chemistry, 2010)
Like-named read-outs stand apart in the source and are kept apart here.

Columns and labels:
[1] = tested on: melanoma; conditions: melanoma chemotherapy; cited from earlier work
[2] = tested on: UACC-62 cells; assay: Cell cycle distribution by flow cytometry; format: cell-based, human; conditions: UACC-62, 6 days, 0.01 µM to 1 µM, PI staining
[3] = tested on: PC-3 (human prostate cancer); assay: Screening against PC-3; format: cell-based; conditions: unpublished data from this laboratory
[4] = tested on: NCI-H226 (human lung cancer); assay: Screening against NCI-H226; format: cell-based; conditions: unpublished data from this laboratory
[5] = tested on: UO-31 (human renal cancer); assay: Screening against UO-31; format: cell-based; conditions: unpublished data from this laboratory
[6] = tested on: A431(human skin cancer); assay: Screening against A431; format: cell-based; conditions: unpublished data from this laboratory
[7] = cited from earlier work
[8] = high dosages; cited from earlier work

CN(C)/N=N/c1[nH]cnc1C(N)=O [Dacarbazine, dacarbazine]
response rate [1]: 10% to 20

CC(=O)N[C@@H](CSC(=O)Nc1ccc(Cl)cc1)C(=O)O [NACC, N-Acetyl-S-(p-chlorophenylcarbamoyl)cysteine]
effect on cell cycle distribution [2]: no change in cell cycle distribution was observed
activity against PC-3 [3]: Poor activities
activity against NCI-H226 [4]: Poor activities
activity against UO-31 [5]: Poor activities
activity against A431 [6]: Poor activities
protein binding ([7]; reported earlier): 84%

O=C(Nc1ccc(Cl)cc1)NS(=O)(=O)c1ccc2c(c1)CCC2 [Sulofenur, reference compound]
protein binding [7]: greater than 99%
adverse effects in clinical trials [8]: hemolytic anemia and methemoglobinemia were observed
